Data as given in patent US20240246952A1, “SMALL MOLECULE MODULATORS OF GLUCOCEREBROSIDASE ACTIVITY AND USES THEREOF” (Vanqua Bio, Inc., priority 2021, published 2024).
pEC50: −log10 of the molar value.

molecular target: T1, GCase (Homo sapiens, UniProt P04062); experiment: activation of GCase in a live cell PFB assay in HELA cells; assay type: cell-based
T1 construct: endogenous in cells; host or cells: HeLa cells
T1 sequence (P04062 40-536): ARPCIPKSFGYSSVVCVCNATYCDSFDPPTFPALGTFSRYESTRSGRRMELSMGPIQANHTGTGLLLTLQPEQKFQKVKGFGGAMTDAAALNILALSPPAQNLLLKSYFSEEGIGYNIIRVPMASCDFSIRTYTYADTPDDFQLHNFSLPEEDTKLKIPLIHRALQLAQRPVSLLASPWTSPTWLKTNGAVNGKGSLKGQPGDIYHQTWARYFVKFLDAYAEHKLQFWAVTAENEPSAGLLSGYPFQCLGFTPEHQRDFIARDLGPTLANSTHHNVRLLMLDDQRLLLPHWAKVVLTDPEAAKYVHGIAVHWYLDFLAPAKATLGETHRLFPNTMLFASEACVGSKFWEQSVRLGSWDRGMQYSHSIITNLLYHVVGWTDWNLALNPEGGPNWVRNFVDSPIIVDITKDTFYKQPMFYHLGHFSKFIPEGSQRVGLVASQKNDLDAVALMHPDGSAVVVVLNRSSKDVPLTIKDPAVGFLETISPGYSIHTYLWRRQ
Description: Exemplary compounds were evaluated for activation of GCase in a live cell PFB assay in HELA cells (essentially as described in Ysselstein et al., “LRRK2 kinase activity regulates lysosomal glucocerebrosidase in neurons derived from Parkinson's disease patients” Nature Communications (2019) 10:5570).

Compound | pEC50
FC(F)(F)c1cccc(-c2nnc(C3(F)CCCN(c4cnc5cnn(C6COC6)c5n4)C3)s2)n1 (centres unmarked) [Compound 24, 2-(3-fluoro-1-(1-(oxetan-3-yl)-1H-pyrazolo[3,4-b]pyrazin-6-yl)piperidin-3-yl)-5-(6-(trifluoromethyl)pyridin-2-yl)-1,3,4-thiadiazole] | < 4.00
CCn1cnc2ncc(N3CCCC(c4nnc(-c5ccccc5)s4)C3)nc21 (centres unmarked) [Compound 20, 2-(1-(1-Ethyl-1H-imidazo[4,5-b]pyrazin-6-yl)piperidin-3-yl)-5-phenyl-1,3,4-thiadiazole] | > 5.00
FC(F)(F)c1cccc(-c2nnc(C3(F)CCCN(c4cncc(-c5nncs5)n4)C3)s2)n1 (centres unmarked) [Compound 8, 2-(3-Fluoro-3-{5-[6-(trifluoromethyl)pyridin-2-yl]-1,3,4-thiadiazol-2-yl}piperidin-1-yl)-6-(1,3,4-thiadiazol-2-yl)pyrazine] | 4.30 to 5.00
Fc1ccccc1-c1nnc(C2CCCN(c3ncc4ccccc4n3)C2)s1 (centres unmarked) [Compound 10, 2-(2-Fluorophenyl)-5-(1-(quinazolin-2-yl)piperidin-3-yl)-1,3,4-thiadiazole] | 4.30 to 5.00
O=C(c1ccc2cc[nH]c2c1)N1CCCC(c2nnc(-c3ccccc3C(F)(F)F)s2)C1 (centres unmarked) [Compound 9, (1H-Indol-6-yl)(3-(5-(2-(trifluoromethyl)phenyl)-1,3,4-thiadiazol-2-yl)piperidin-1-yl)methanone] | 4.30 to 5.00
FC(F)Cn1ncc2ncc(N3C[C@@H]4[C@H](C3)[C@H]4c3nnc(-c4ccccc4)s3)nc21 [Compound 28, 2-((1R,5S,6R)-3-(1-(2,2-Difluoroethyl)-1H-pyrazolo[3,4-b]pyrazin-6-yl)-3-azabicyclo[3.1.0]hexan-6-yl)-5-phenyl-1,3,4-thiadiazole] | 4.30 to 5.00
FC(F)(F)Oc1ccccc1-c1nnc(C2(F)CCCN(c3cncc(-c4nncs4)n3)C2)s1 (centres unmarked) [Compound 29, 2-(1-(6-(1,3,4-Thiadiazol-2-yl)pyrazin-2-yl)-3-fluoropiperidin-3-yl)-5-(2-(trifluoromethoxy)phenyl)-1,3,4-thiadiazole] | 4.30 to 5.00
CCn1ncc2ncc(N3CCCC(c4nnc(-c5ccccc5)s4)C3)nc21 (centres unmarked) [Compound 15, 2-(1-(1-Ethyl-1H-pyrazolo[3,4-b]pyrazin-6-yl)piperidin-3-yl)-5-phenyl-1,3,4-thiadiazole] | 4.00 to 4.30
FC(F)Cn1ncc2ncc(N3CCCC(c4nnc(-c5ccnc(C(F)(F)F)c5)s4)C3)nc21 (centres unmarked) [Compound 5, 2-(1-(1-(2,2-difluoroethyl)-1H-pyrazolo[3,4-b]pyrazin-6-yl)piperidin-3-yl)-5-(2-(trifluoromethyl)pyridin-4-yl)-1,3,4-thiadiazole] | > 5.00
Fc1ccccc1-c1nnc(C2CCCN(c3cnc4ccccc4n3)C2)s1 (centres unmarked) [Compound 4, 2-(2-fluorophenyl)-5-(1-(quinoxalin-2-yl)piperidin-3-yl)-1,3,4-thiadiazole] | 4.30 to 5.00
Cc1nnc(C2CCCN(c3ncc4ccccc4n3)C2)s1 (centres unmarked) [Compound 16, 2-methyl-5-(1-(quinazolin-2-yl)piperidin-3-yl)-1,3,4-thiadiazole] | < 4.00
FC(F)(F)Oc1ccccc1-c1nnc(C2CCCN(c3cncc(-c4nncs4)n3)C2)s1 (centres unmarked) [Compound 22, 2-(1-(6-(1,3,4-thiadiazol-2-yl)pyrazin-2-yl)piperidin-3-yl)-5-(2-(trifluoromethoxy)phenyl)-1,3,4-thiadiazole] | > 5.00
c1ccc(-c2nnc(C3CCCN(c4ncc5ccccc5n4)C3)s2)cc1 (centres unmarked) [Compound 14, 2-Phenyl-5-(1-(quinazolin-2-yl)piperidin-3-yl)-1,3,4-thiadiazole] | 4.30 to 5.00
FC(F)Cn1ncc2ncc(N3CCCC(c4nnc(-c5cccnc5C(F)(F)F)s4)C3)nc21 (centres unmarked) [Compound 7, 2-(1-(1-(2,2-Difluoroethyl)-1H-pyrazolo[3,4-b]pyrazin-6-yl)piperidin-3-yl)-5-(2-(trifluoromethyl)pyridin-3-yl)-1,3,4-thiadiazole] | 4.30 to 5.00
O=C(c1ccc2cc[nH]c2c1)N1CCCC(c2nnc(-c3ccccc3)s2)C1 (centres unmarked) [Compound 12, (1H-Indol-6-yl)(3-(5-phenyl-1,3,4-thiadiazol-2-yl)piperidin-1-yl)methanone] | 4.30 to 5.00
FC(F)Cn1ncc2ncc(N3CCCC(c4nnc(-c5cccc(C(F)(F)F)n5)s4)C3)nc21 (centres unmarked) [Compound 2, 2-(5-{1-[1-(2,2-difluoroethyl)pyrazolo[3,4-b]pyrazin-6-yl]piperidin-3-yl}-1,3,4-thiadiazol-2-yl)-6-(trifluoromethyl)pyridine] | 4.30 to 5.00
O=C(c1ccc2ccn(CC3COC3)c2c1)N1CCCC(F)(c2nnc(-c3cccc(C(F)(F)F)n3)s2)C1 (centres unmarked) [Compound 25, (3-Fluoro-3-(5-(6-(trifluoromethyl)pyridin-2-yl)-1,3,4-thiadiazol-2-yl)piperidin-1-yl)(1-(oxetan-3-ylmethyl)-1H-indol-6-yl)methanone] | 4.30 to 5.00
COc1ncncc1-c1nnc(C2CCCN(c3cnc4ccccc4n3)C2)s1 (centres unmarked) [Compound 18, 2-(4-Methoxypyrimidin-5-yl)-5-(1-(quinoxalin-2-yl)piperidin-3-yl)-1,3,4-thiadiazole] | 4.30 to 5.00
c1ccc(-c2nnc(C3CCCN(c4cncc(-c5nncs5)n4)C3)s2)cc1 (centres unmarked) [Compound 1, 2-[3-(5-phenyl-1,3,4-thiadiazol-2-yl)piperidin-1-yl]-6-(1,3,4-thiadiazol-2-yl)pyrazine] | 4.30 to 5.00
FC(F)(F)c1cccc(-c2nnc(C3(F)CCCN(c4cnc5ccccc5n4)C3)s2)n1 (centres unmarked) [Compound 13, 2-(3-Fluoro-3-{5-[6-(trifluoromethyl)pyridin-2-yl]-1,3,4-thiadiazol-2-yl}piperidin-1-yl)quinoxaline] | 4.30 to 5.00
FC(F)Cn1ncc2ncc(N3C[C@@H]4[C@H](C3)[C@H]4c3nnc(-c4cccnc4C(F)(F)F)s3)nc21 [Compound 23, 2-((1R,5S,6r)-3-(1-(2,2-Difluoroethyl)-1H-pyrazolo[3,4-b]pyrazin-6-yl)-3-azabicyclo[3.1.0]hexan-6-yl)-5-(2-(trifluoromethyl)pyridin-3-yl)-1,3,4-thiadiazole] | < 4.00
c1ccc(-c2nnc(C3CCCN(c4cnc5ccccc5n4)C3)s2)cc1 (centres unmarked) [Compound 11, 2-Phenyl-5-(1-(quinoxalin-2-yl)piperidin-3-yl)-1,3,4-thiadiazole] | 4.30 to 5.00
CCn1ccc2ncc(N3CCCC(c4nnc(-c5ccccc5)s4)C3)nc21 (centres unmarked) [Compound 3, 2-(1-(5-ethyl-5H-pyrrolo[2,3-b]pyrazin-3-yl)piperidin-3-yl)-5-phenyl-1,3,4-thiadiazole] | 4.30 to 5.00
O=C(c1ccc2cc[nH]c2c1)N1CCCC(c2nnc(-c3cccnc3C(F)(F)F)s2)C1 (centres unmarked) [Compound 17, (1H-Indol-6-yl)(3-(5-(2-(trifluoromethyl)pyridin-3-yl)-1,3,4-thiadiazol-2-yl)piperidin-1-yl)methanone] | 4.30 to 5.00
FC(F)(F)Cn1ncc2ncc(N3CCCC(F)(c4nnc(-c5cccc(C(F)(F)F)n5)s4)C3)nc21 (centres unmarked) [Compound 6, 2-(3-Fluoro-1-(1-(2,2,2-trifluoroethyl)-1H-pyrazolo[3,4-b]pyrazin-6-yl)piperidin-3-yl)-5-(6-(trifluoromethyl)pyridin-2-yl)-1,3,4-thiadiazole] | 4.30 to 5.00
FC(F)Cn1ncc2ncc(N3CCCC(c4nnc(-c5ccccc5)s4)C3)nc21 (centres unmarked) [Compound 19, 2-(1-(1-(2,2-Difluoroethyl)-1H-pyrazolo[3,4-b]pyrazin-6-yl)piperidin-3-yl)-5-phenyl-1,3,4-thiadiazole] | > 5.00
O=C(c1ccc2ccn(C3COC3)c2c1)N1CCCC(F)(c2nnc(-c3cccc(C(F)(F)F)n3)s2)C1 (centres unmarked) [Compound 26, (3-Fluoro-3-(5-(6-(trifluoromethyl)pyridin-2-yl)-1,3,4-thiadiazol-2-yl)piperidin-1-yl)(1-(oxetan-3-yl)-1H-indol-6-yl)methanone] | 4.30 to 5.00
FC(F)(F)c1cccc(-c2nnc(C3(F)CCCN(c4cnc5cnn(CC6COC6)c5n4)C3)s2)n1 (centres unmarked) [Compound 27, 2-(3-Fluoro-1-(1-(oxetan-3-ylmethyl)-1H-pyrazolo[3,4-b]pyrazin-6-yl)piperidin-3-yl)-5-(6-(trifluoromethyl)pyridin-2-yl)-1,3,4-thiadiazole] | > 5.00
FC(F)Cn1ncc2ncc(N3CCCC(c4nnc(-c5ccc(C(F)(F)F)nc5)s4)C3)nc21 (centres unmarked) [Compound 21, 2-(1-(1-(2,2-Difluoroethyl)-1H-pyrazolo[3,4-b]pyrazin-6-yl)piperidin-3-yl)-5-(6-(trifluoromethyl)pyridin-3-yl)-1,3,4-thiadiazole] | > 5.00
